The text below walks through data of EP0324875A1 (priority 1988, dated 1989).

Where two headings read alike, the source gives them in different places.

The test system of one data set is Virus FPV. The data set is described as follows: organism not typed. The format is cell-based, Grippe-Virus A/H7N7/. The settings on record: 72 h; for Inhibitionsprozent (Verminderung der Plaquebildung): Zellen EHF.
For data set [1], the system named is Virus FPV (Stamm Weibridge). Format: cell-based, Grippe-Virus A/H7N7/. The settings on record: for inf. Titer in PBE/ml / XA-Titer: MOI = 0,5.
The test system of another data set is Grippe-Virus B/Lii. As to the kind of experiment: One-cycle test, virus yield in calf kidney cell culture. Format: cell-based. The settings on record: MOI = 1. From the text: Bei den Mehrcyclen- und Eincyclustests werden einschichtige Zellkulturen einer embryonalen Kalbsniere verwendet, welche mit Grippe-Viren A/H3N2/Texas/77 und B/Lii/MOI = 0.01-0.5 und 1-10 entsprechend infiziert werden. Die Ausbeute an infektiösem und hämaglutinierendem Virus wird in der 24sten Stunde (bei einem Mehrcyclentest) und entsprechend in der zwölften bis fünfzehnten Stunde (bei einem Eincyclustest) ausgerechnet. Der infektiöse Titer wird EID₅₀/ml bestimmt. Dieselben Versuche werden auch mit Virus FPV (Stamm Weibridge) in Zellen EHF(bei Ausrechnung des infektiösen Virus Plaque-bildenden Einheiten und des hämaglutinierenden Virus) durchgeführt. Die Wirksamkeit der Verbindungen wird im Bezug auf die Kontrolle (ohne Inhibitoren) ausgerechnet.

The conditions of data set [2]: DD-13 18,7 mg/kg.
Where [3] appears, read: read-out: Inhibitionsprozent (Verminderung der Plaquebildung).

For `O=C1NCCCN1CN1CCOCC1` [DD-13], in the data set with Virus FPV (setting [3]), the inhibition at 10 µM is 2.3%. The inhibition at 30 µM in the data set with Virus FPV (setting [3]) turned out to be 15.2%. Also, in the data set on Virus FPV (setting [3]), the inhibition at 100 µM amounted to 34.3%. Further, the inhibition at 300 µM in the data set with Virus FPV (setting [3]) came out at 85%. Besides, the inhibition at 1000 µM in the data set on Virus FPV (setting [3]) stood at 99.2%. Further, the “Inhibitionsprozent (Verminderung der Plaquebildung)” value in the data set on Virus FPV (DD-13 3x10^-4 M/1 alone) is 85,00%. Further, in data set [1] (60 mkg/ml DD-13 alone), the “Verminderung der Ausbeute des hämaglutivierenden Virus (fold)” value is on record as “viermalige”. The “inf. Titer in PBE/ml” value in data set [1] (DD-13 15 mkg/ml alone, control without inhibitors 1.7x10^7) is reported as 5x10^6 PBE/ml; in data set [1] (DD-13 30 mkg/ml alone, control 1.7x10^7), 6,9x10^6 PBE/ml; in data set [1] (DD-13 60 mkg/ml alone, control 1.7x10^7), 3,9x10^6 PBE/ml. Besides, the XA-Titer came out at 1024 in data set [1] (DD-13 15 mkg/ml alone, control without inhibitors 2048); 512 in data set [1] (DD-13 30 mkg/ml alone, control 2048); 256 in data set [1] (DD-13 60 mkg/ml alone, control 2048); 8 in the data set on Grippe-Virus B/Lii (DD-13 12,5 (unit not given) alone, control without inhibitors 8); 4 in the data set with Grippe-Virus B/Lii (DD-13 25 (unit not given) alone, control 8); 4 with Grippe-Virus B/Lii (DD-13 50 (unit not given) alone, control 8). Further, the “inf. Titer in log. EID50/ml” value is given as 4,0 log. EID50/ml in the data set with Grippe-Virus B/Lii (DD-13 12,5 (unit not given) alone, control without inhibitors 6,3); 2,5 log. EID50/ml with Grippe-Virus B/Lii (DD-13 25 (unit not given) alone, control 6,3); 2,0 log. EID50/ml in the data set with Grippe-Virus B/Lii (DD-13 50 (unit not given) alone, control 6,3). Further, the “dose as fraction of LD50” value in data set [2] is listed as 1/213.

Regarding `CC(N)C12CC3CC(CC(C3)C1)C2` (stereo not drawn) [Rimantadin, reference compound], in the data set with Virus FPV (setting [3]), the inhibition at 0.0001 µM came to 3.52%. In addition, in the data set with Virus FPV (setting [3]), the inhibition at 0.001 µM stood at 18.4%. The inhibition at 0.01 µM in the data set with Virus FPV (setting [3]) was 48%. For the same molecule, the “Inhibitionsprozent (Verminderung der Plaquebildung)” value in the data set on Virus FPV (Rimantadin 10^-9 M/1 alone) was 18,37 ± 14,19%. For the same molecule, the “Verminderung der Ausbeute des hämaglutivierenden Virus (fold)” value in data set [1] (5 mkg/ml Rimantadin alone) was found to be 64. Further, the “inf. Titer in PBE/ml” value in data set [1] (Rim. 1 mkg/ml alone, control 1.7x10^7) is on record as 4,2x10^4 PBE/ml; in data set [1] (Rim. 5 mkg/ml alone, control 1.7x10^7), 4,4x10^4 PBE/ml. For the same molecule, the XA-Titer is recorded as 32 in data set [1] (Rim. 1 mkg/ml alone, control 2048); 32 in data set [1] (Rim. 5 mkg/ml alone, control 2048); 4 with Grippe-Virus B/Lii (Rim. 5 mkg/ml alone, control 8); 4 in the data set with Grippe-Virus B/Lii (Rim. 25 mkg/ml alone, control 8). Also, the “inf. Titer in log. EID50/ml” value in the data set on Grippe-Virus B/Lii (Rim. 5 mkg/ml alone, control 6,3) is listed as 6,0 log. EID50/ml; with Grippe-Virus B/Lii (Rim. 25 mkg/ml alone, control 6,3) it was 4,7 log. EID50/ml.
